{"source": "patent US11359044B2", "about": "“Preparation and application of novel multifunctional nanocomposite material with new photosensitizer” (priority 2018, dated 2022)", "origin": "cited, not measured here", "settings": "in DMSO, used as control", "data": [{"smiles": "[Zn+2].c1ccc2c(c1)-c1nc-2nc2[n-]c(nc3nc([n-]c4nc(n1)-c1ccccc1-4)-c1ccccc1-3)c1ccccc21", "note": "[ZnPc, zinc phthalocyanine]", "values": [{"measurement": "singlet oxygen yield", "result": 0.67}]}]}
